Structures are written as SMILES. Changes are numbered by the printed parent chain.

In experiment [1] the target is T1, Inhibitor of nuclear factor kappa-B kinase subunit alpha (Homo sapiens) (UniProt O15111).
T1 sequence (whole entry): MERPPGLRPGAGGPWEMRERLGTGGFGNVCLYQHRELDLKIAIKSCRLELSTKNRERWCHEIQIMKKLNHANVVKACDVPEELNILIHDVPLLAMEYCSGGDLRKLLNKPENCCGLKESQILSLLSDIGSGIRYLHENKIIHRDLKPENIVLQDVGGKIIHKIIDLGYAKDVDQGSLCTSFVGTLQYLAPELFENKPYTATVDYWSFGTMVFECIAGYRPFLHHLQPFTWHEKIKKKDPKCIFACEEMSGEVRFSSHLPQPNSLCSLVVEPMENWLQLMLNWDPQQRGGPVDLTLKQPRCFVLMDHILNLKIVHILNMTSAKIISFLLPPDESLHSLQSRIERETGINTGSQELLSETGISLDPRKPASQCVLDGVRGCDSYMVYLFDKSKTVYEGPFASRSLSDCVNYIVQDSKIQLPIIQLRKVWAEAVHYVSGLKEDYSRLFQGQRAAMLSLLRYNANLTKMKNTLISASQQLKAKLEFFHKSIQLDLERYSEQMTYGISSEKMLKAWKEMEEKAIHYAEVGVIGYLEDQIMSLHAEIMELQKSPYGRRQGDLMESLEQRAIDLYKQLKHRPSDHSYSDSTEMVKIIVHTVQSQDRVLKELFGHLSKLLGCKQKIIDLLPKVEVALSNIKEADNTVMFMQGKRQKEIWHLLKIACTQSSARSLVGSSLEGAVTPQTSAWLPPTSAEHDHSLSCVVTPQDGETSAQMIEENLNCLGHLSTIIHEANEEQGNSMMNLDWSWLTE
Briefly: Selectivity interaction (ProQinase) EUB0000171b CHUK.

Experiment [2] concerns the target Receptor-type tyrosine-protein kinase FLT3 (Homo sapiens) (UniProt P36888). The experiment in a line: (§1) Selectivity interaction (KinomeScan (DiscoverX)) EUB0000655a FLT3. The settings on record: at 10 µM.
For experiment [3], the system named is T2, Receptor-type tyrosine-protein kinase FLT3 (Homo sapiens), P36888 [D835Y].
T2 sequence (whole entry): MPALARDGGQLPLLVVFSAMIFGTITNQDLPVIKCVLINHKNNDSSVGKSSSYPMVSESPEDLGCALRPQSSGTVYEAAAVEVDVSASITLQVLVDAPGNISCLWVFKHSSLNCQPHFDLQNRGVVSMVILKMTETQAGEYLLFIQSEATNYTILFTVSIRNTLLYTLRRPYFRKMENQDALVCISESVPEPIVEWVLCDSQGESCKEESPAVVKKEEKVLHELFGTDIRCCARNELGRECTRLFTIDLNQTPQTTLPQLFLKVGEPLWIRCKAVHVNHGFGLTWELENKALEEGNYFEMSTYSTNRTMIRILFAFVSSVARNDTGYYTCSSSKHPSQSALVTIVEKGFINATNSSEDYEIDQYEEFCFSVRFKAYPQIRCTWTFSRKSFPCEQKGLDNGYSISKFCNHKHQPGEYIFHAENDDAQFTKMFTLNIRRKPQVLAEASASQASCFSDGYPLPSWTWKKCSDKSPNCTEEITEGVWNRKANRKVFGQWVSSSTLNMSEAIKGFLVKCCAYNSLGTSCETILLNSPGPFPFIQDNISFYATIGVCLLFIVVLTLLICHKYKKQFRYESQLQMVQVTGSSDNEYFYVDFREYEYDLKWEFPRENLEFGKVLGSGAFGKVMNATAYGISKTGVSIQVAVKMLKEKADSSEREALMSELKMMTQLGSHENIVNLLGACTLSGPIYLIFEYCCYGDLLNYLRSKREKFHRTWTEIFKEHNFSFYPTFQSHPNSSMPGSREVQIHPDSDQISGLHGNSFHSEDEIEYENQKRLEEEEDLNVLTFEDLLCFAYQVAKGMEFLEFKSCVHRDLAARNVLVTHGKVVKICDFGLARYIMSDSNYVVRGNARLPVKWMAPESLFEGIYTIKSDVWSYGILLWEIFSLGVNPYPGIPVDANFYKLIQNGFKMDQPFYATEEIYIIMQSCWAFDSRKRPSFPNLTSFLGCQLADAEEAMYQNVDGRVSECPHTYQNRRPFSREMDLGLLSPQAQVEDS
The experiment is described as §1. The settings on record: at 10 µM.

Experiment [4] concerns T3, Receptor-type tyrosine-protein kinase FLT3 (Homo sapiens), P36888 [R834Q].
T3 sequence (whole entry): T2 sequence (whole entry) with R834Q, Y835D
The description is as §1. The settings on record: at 10 µM.

The test system of experiment [5] is Receptor-type tyrosine-protein kinase FLT3 (Homo sapiens), P36888 [UNDEFINED MUTATION]. The experiment is described as §1. The settings on record: at 10 µM.

Consider `C=CC(=O)Nc1cccc(C(=O)Nc2ccc(Nc3cc(-c4[nH]c(SC)nc4C)ccn3)cc2)c1`, for which the results for the % of control in experiment [1] (at 1 µM) and in experiment [1] (at 5 µM) were 78% and 57%, respectively.
For `CN(C)CCOc1ccc(-c2nc(-c3ccncc3)c(-c3ccc4c(c3)CC/C4=N\O)[nH]2)cc1`, the % of control in experiment [2] was determined as 62%; in experiment [3], 64%; in experiment [4], 100%; in experiment [5], 78%.
